The structures appear in SMILES notation. Active and inactive are the calls of the source. The calls are words filed in the database; no cut-off is given here. A value given as a limit tells only on which side of the number the result lay.

Assay [1] concerns the target T1, Type-1 angiotensin II receptor (Oryctolagus cuniculus) (UniProt P34976).
T1 sequence (whole entry): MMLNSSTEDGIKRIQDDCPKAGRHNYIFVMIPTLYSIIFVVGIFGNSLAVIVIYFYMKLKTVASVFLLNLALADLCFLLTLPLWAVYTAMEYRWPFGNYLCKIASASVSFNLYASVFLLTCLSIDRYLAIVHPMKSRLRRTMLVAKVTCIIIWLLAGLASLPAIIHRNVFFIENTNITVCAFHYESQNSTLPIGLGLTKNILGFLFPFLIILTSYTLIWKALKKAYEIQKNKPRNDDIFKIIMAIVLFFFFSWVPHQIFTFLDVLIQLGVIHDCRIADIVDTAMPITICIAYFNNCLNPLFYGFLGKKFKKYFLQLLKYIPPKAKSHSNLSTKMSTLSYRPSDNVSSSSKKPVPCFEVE
As to the kind of experiment: In vitro antagonistic activity against Ang II (AT1) receptor was determined in rabbit aorta. Format: functional, tissue-based.

The target in assay [2] is T2, Type-1 angiotensin II receptor B (Rattus norvegicus) (UniProt P29089).
T2 sequence (whole entry): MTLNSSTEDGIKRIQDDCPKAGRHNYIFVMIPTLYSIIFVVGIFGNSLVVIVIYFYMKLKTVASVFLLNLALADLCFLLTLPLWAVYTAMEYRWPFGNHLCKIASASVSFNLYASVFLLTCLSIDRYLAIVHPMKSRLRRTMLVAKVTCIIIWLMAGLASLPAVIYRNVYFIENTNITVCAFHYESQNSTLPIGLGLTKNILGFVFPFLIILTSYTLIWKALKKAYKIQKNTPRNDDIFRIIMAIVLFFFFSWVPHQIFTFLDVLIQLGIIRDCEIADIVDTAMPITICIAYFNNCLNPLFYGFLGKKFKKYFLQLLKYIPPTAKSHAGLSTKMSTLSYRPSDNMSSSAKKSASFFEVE
In words: In vivo pressor response to Ang II (AT1) receptor in pithed rats at an oral dose of 10 mg/kg. Format: functional, organism-based. Also noted: dose 10 mg/kg.

Assay [3] deals with T2, Type-1 angiotensin II receptor B (Rattus norvegicus). As to the kind of experiment: In vivo pressor response to Ang II (AT1) receptor in pithed rats at an oral dose of 10 mg/kg; Not active. It counts as functional, organism-based. On the set-up: dose 10 mg/kg.

As for `CCCCCC[C@H](C(=O)N1CCC[C@H]1C(=O)O)n1cnc(NC(=O)c2ccccc2S(=O)(=O)O)c1`, in assay [1], the Kb was determined as 50.9 nM.
On the same count and under the same terms, in the case of `CCCCCC[C@H](C(=O)N1C[C@@H](Oc2ccc(C(C)C)cc2)C[C@H]1C(=O)O)n1cnc(NC(=O)c2ccccc2S(=O)(=O)O)c1` it was 25.1 nM; in that of `CCCCCC[C@H](C(=O)N1C[C@@H](Oc2ccc(OC)c(OC)c2)C[C@H]1C(=O)O)n1cnc(NC(=O)c2ccccc2S(=O)(=O)O)c1`, 15.8 nM; in that of `CCCCCC[C@H](C(=O)N1C[C@@H](Oc2cccc3cnccc23)C[C@H]1C(=O)O)n1cnc(NC(=O)c2ccccc2S(=O)(=O)O)c1`, 3.3 nM.
Same read-out and setting: the value for `CCCCCC[C@H](C(=O)N1C[C@@H](Oc2ccccc2)C[C@H]1C(=O)O)n1cnc(NC(=O)c2ccccc2S(=O)(=O)O)c1` was 0.8 nM.
With `CCCCCC[C@H](C(=O)N1C[C@@H](Oc2ccc(CCP(=O)(O)O)cc2)C[C@H]1C(=O)O)n1cnc(NC(=O)c2ccccc2S(=O)(=O)O)c1`, the Kb in assay [2] was determined as 8.3 mg/kg; in assay [1] it was 0.4 nM.
Take `CCCCCCC(C(=O)O)n1cnc(NC(=O)c2ccccc2C(=O)O)c1` (centres undefined): the Kb in assay [1] was found to be 684 nM.
In assay [1], `CCCCCC[C@H](C(=O)N1C[C@@H](Oc2ccc(-c3ccccc3)cc2)C[C@H]1C(=O)O)n1cnc(NC(=O)c2ccccc2S(=O)(=O)O)c1` displayed a Kb of 10 nM.
For `CCCCCC[C@H](C(=O)N1C[C@@H](Oc2ccc(C(=O)O)cc2)C[C@H]1C(=O)O)n1cnc(NC(=O)c2ccccc2S(=O)(=O)O)c1`, in assay [3], the Kb result is “inactive”. The same molecule yielded a Kb in assay [1] of 1.1 nM.
In assay [1], `CCCCCC[C@H](C(=O)N1C[C@@H](Oc2ccc(OC)cc2)C[C@H]1C(=O)O)n1cnc(NC(=O)c2ccccc2S(=O)(=O)O)c1` returned a Kb of 0.44 nM.
`CCCCCC[C@H](C(=O)N1C[C@@H](Oc2cccnc2)C[C@H]1C(=O)O)n1cnc(NC(=O)c2ccccc2S(=O)(=O)O)c1` came in with a Kb in assay [1] of 148 nM.
On to `CCCCCC[C@H](C(=O)N1C[C@@H](Oc2ccc(C(C)(C)C)cc2)C[C@H]1C(=O)O)n1cnc(NC(=O)c2ccccc2S(=O)(=O)O)c1`, for which the Kb in assay [1] was 126 nM.
On the same count and under the same terms, in the case of `CCCCC(C(=O)O)n1cnc(C(=O)Nc2ccccc2)c1` (centres undefined) it was 71.5 nM; in that of `CCCCCC[C@H](C(=O)N1C[C@@H](O)C[C@H]1C(=O)O)n1cnc(NC(=O)c2ccccc2S(=O)(=O)O)c1`, 25.8 nM.
Turning to `CCCCCC[C@H](C(=O)N1C[C@@H](Oc2ccc3occc3c2)C[C@H]1C(=O)O)n1cnc(NC(=O)c2ccccc2S(=O)(=O)O)c1`, the Kb in assay [1] stood at 0.63 nM.
Consider `CCCCCC[C@H](C(=O)N1C[C@@H](Oc2ccc(CC3N=NN=N3)cc2)C[C@H]1C(=O)O)n1cnc(NC(=O)c2ccccc2S(=O)(=O)O)c1`, for which the Kb entry in assay [3] was “inactive”. In assay [1], this molecule displayed a Kb of 0.6 nM.
Regarding `CCCCCC[C@H](C(=O)N1C[C@@H](Oc2ccc(CCC(=O)O)cc2)C[C@H]1C(=O)O)n1cnc(NC(=O)c2ccccc2S(=O)(=O)O)c1`, the Kb entry in assay [3] is “inactive”. Moreover, the Kb in assay [1] turned out to be 0.6 nM.
On to `CCCCCC[C@H](C(=O)N1C[C@@H](Oc2ccno2)C[C@H]1C(=O)O)n1cnc(NC(=O)c2ccccc2S(=O)(=O)O)c1`, for which, in assay [1], the Kb came to 94.6 nM.
`CCCCCCC(C(=O)O)n1cnc(NC(=O)c2ccccc2-c2nn[nH]n2)c1` (centres undefined) displayed a Kb in assay [1] of 159 nM.
The molecule `CCCCCC[C@H](C(=O)N1C[C@@H](Oc2ccc(OC(C)(C)C)cc2)C[C@H]1C(=O)O)n1cnc(NC(=O)c2ccccc2S(=O)(=O)O)c1` had a Kb in assay [1] of 5.2 nM.
As to `CCCCCC[C@H](C(=O)N1C[C@@H](Oc2ccccc2OC)C[C@H]1C(=O)O)n1cnc(NC(=O)c2ccccc2S(=O)(=O)O)c1`, in assay [1], the Kb was above 30 nM.
In assay [1], `CCCCCC[C@H](C(=O)N1C[C@@H](Oc2ccc(C(F)(F)F)cc2)C[C@H]1C(=O)O)n1cnc(NC(=O)c2ccccc2S(=O)(=O)O)c1` registered a Kb of 34.7 nM.
On the same count and under the same terms, the value for `CCCCCCC(C(=O)O)n1cnc(NC(=O)c2ccccc2)c1` (centres undefined) was 12500 nM; that for `CCCCCC[C@H](C(=O)N1C[C@@H](Oc2cccc(OC)c2)C[C@H]1C(=O)O)n1cnc(NC(=O)c2ccccc2S(=O)(=O)O)c1` was 11.6 nM; that for `CCCCCCC(C(=O)O)n1cnc(NC(=O)c2cccc(O)c2C(=O)O)c1` (centres undefined) was 124 nM.
`CCCCCC[C@H](C(=O)N1C[C@@H](Oc2ccc3sccc3c2)C[C@H]1C(=O)O)n1cnc(NC(=O)c2ccccc2S(=O)(=O)O)c1` yielded a Kb in assay [1] of 3.6 nM.
In assay [1], `CCCCCC[C@H](C(=O)N1C[C@@H](Oc2ccc(C)cc2)C[C@H]1C(=O)O)n1cnc(NC(=O)c2ccccc2S(=O)(=O)O)c1` had a Kb of 1.09 nM.
`CCCCCC[C@H](C(=O)N1C[C@@H](Oc2ccc3ccccc3c2)C[C@H]1C(=O)O)n1cnc(NC(=O)c2ccccc2S(=O)(=O)O)c1`: in assay [1], the Kb is 4.1 nM.
Molecule `CCCCCC[C@H](C(=O)N1C[C@@H](Oc2cccc3ccccc23)C[C@H]1C(=O)O)n1cnc(NC(=O)c2ccccc2S(=O)(=O)O)c1` came in with a Kb in assay [1] of 4040 nM.
With `CCCCCC[C@H](C(=O)N1C[C@@H](Oc2ccc(CP(=O)(O)O)cc2)C[C@H]1C(=O)O)n1cnc(NC(=O)c2ccccc2S(=O)(=O)O)c1`, the Kb worked out at 1.8 mg/kg in assay [2] and 0.9 nM in assay [1].
Take `CCCCCC[C@H](C(=O)N1C[C@@H](Oc2ccc(C(C)(C)C(=O)O)cc2)C[C@H]1C(=O)O)n1cnc(NC(=O)c2ccccc2S(=O)(=O)O)c1`: the Kb in assay [2] amounted to 6.5 mg/kg; in assay [1], 0.6 nM.
Turning to `CCCCCC[C@H](C(=O)N1C[C@@H](Oc2ccc(F)cc2)C[C@H]1C(=O)O)n1cnc(NC(=O)c2ccccc2S(=O)(=O)O)c1`, the Kb in assay [1] came to 3 nM.
Turning to `CCCCCC[C@@H](C(=O)N1CCC[C@H]1C(=O)O)n1cnc(NC(=O)c2ccccc2S(=O)(=O)O)c1`, the Kb in assay [1] was 461 nM.
For the molecule `CCCCCC[C@@H](C(=O)N1C[C@@H](Oc2ccccc2)C[C@H]1C(=O)O)n1cnc(NC(=O)c2ccccc2S(=O)(=O)O)c1`, the Kb in assay [1] was 3.2 nM.
Regarding `CCCCCC[C@H](C(=O)N1C[C@@H](Oc2ccccc2CC(=O)O)C[C@H]1C(=O)O)n1cnc(NC(=O)c2ccccc2S(=O)(=O)O)c1`, the Kb result in assay [3] is “inactive”. In assay [1], this molecule had a Kb of 501 nM.
As to `CCCCCC[C@H](C(=O)N1C[C@@H](Oc2ccc(OC(C)C)cc2)C[C@H]1C(=O)O)n1cnc(NC(=O)c2ccccc2S(=O)(=O)O)c1`, the Kb in assay [1] is 4.1 nM.
`CCCCCC[C@H](C(=O)N1C[C@@H](Oc2ccc(CC(=O)O)cc2)C[C@H]1C(=O)O)n1cnc(NC(=O)c2ccccc2S(=O)(=O)O)c1`: the Kb in assay [2] amounted to 2.8 mg/kg; in assay [1], 0.27 nM.
In the case of `CCCCCC[C@H](C(=O)N1C[C@@H](Oc2cccc(CC(=O)O)c2)C[C@H]1C(=O)O)n1cnc(NC(=O)c2ccccc2S(=O)(=O)O)c1`, the Kb in assay [2] worked out at 10.6 mg/kg; in assay [1], 15.8 nM.
`CCCCCC[C@H](C(=O)N1C[C@@H](Oc2ccc3c(c2)OCO3)C[C@H]1C(=O)O)n1cnc(NC(=O)c2ccccc2S(=O)(=O)O)c1` came in with a Kb in assay [1] of 0.92 nM.
The molecule `CCCCCCC(C(=O)O)n1cnc(NC(=O)c2ccccc2S(=O)(=O)O)c1` (centres undefined) displayed a Kb in assay [1] of 81.7 nM.

These data come from ChEMBL document CHEMBL1127307, “Structural evolution and pharmacology of a novel series of triacid angiotensin II receptor antagonists” (J Med Chem, 1994).
